Tests used:
CYPIR (Cyperus iria) = assay: Flooded paddy, preemergence weed control; format: in vivo; details: rated 3-4 weeks after treatment, 0-9 rating scale
How it was run: (§1)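 Ratings of 0-9 reflect visual comparison with a control for stand, vigor, deformity, size, chlorosis and overall look. Propagules were placed in shallow silt loam (top 0.5 cm) under a continuous 1.5–3 cm flood and grown in the greenhouse.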

[1] = test system: SAGPY (Sagittaria pygmaea); assay: Flooded paddy, preemergence weed control; format: in vivo, L.; details: rated 3-4 weeks after treatment, 0-9 rating scale
How it was run: as §1

GALAP (Galium aparine) = assay: Postemergence herbicidal evaluation; format: in vivo
How it was run: (§2)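 Visual 0–9 injury scores versus control plants, covering stand, vigour, malformation, size, chlorosis and general appearance, taken four to five weeks post-spray and averaged over replicate tests. Plants were sprayed at roughly two weeks old and held on greenhouse benches.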

ORYSAT (Rice, Tebonnet) = assay: Flooded paddy, post-transplant rice tolerance; format: in vivo, Oryza sativa, (L.) Tebonnet; details: flooded paddy, post-transplant rice, rated 3-4 weeks after treatment, 0-9 rating scale
How it was run: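 Steps: transplant two ten-day-old seedlings into silt loam; flood to 1.5-3 cm above soil; apply herbicide post-transplant; maintain water on greenhouse benches; rate stand, vigor, malformation, size and chlorosis on a 0-9 visual scale versus control.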

ZEAMX (Corn, Field) = assay: Preemergence herbicidal evaluation; format: in vivo, Zea mays, L.; details: preemergence, rated 4-5 weeks after treatment
[2] = test system: CHEAL (Chenopodium album); assay: Postemergence herbicidal evaluation; format: in vivo, L.
How it was run: as §2

[3] = test system: AMBEL (Ambrosia artemisifolia); assay: Postemergence herbicidal evaluation; format: in vivo, L.
How it was run: as §2

[4] = test system: CASOB (Cassia obtusifolia); assay: Postemergence herbicidal evaluation; format: in vivo, L.
How it was run: as §2

[5] = test system: IPOHE (Ipomoea hederacea); assay: Preemergence herbicidal evaluation; format: in vivo, (L.) Jacq.; details: preemergence, rated 4-5 weeks after treatment
[6] = test system: GLXMAW (Soybean, Williams); assay: Preemergence herbicidal evaluation; format: in vivo, Glycine max, (L.) Merr. cv Williams; details: preemergence, rated 4-5 weeks after treatment
[7] = test system: ABUTH (Abutilon theophrasti); assay: Postemergence herbicidal evaluation; format: in vivo, Medic.
How it was run: as §2

## Cn1c(C(F)(F)F)cc(=O)n(-c2ccc3snc(C4OCCCO4)c3c2)c1=O [Compound 28, 3-(3-m-dioxan-2-yl-1,2-benzisothiazol-5-yl)-1-methyl-6-(trifluoromethyl)uracil]
CYPIR (Cyperus iria); rate 0.0080 kg/ha
  herbicidal rating, CYPIR: 8.0
CYPIR (Cyperus iria); rate 0.0320 kg/ha
  herbicidal rating, CYPIR: 9.0
CYPIR (Cyperus iria); rate 0.1250 kg/ha
  herbicidal rating, CYPIR: 9.0
[1]; rate 0.0080 kg/ha
  herbicidal rating, SAGPY: 0.0
[1]; rate 0.0320 kg/ha
  herbicidal rating, SAGPY: 8.0
[1]; rate 0.1250 kg/ha
  herbicidal rating, SAGPY: 9.0
GALAP (Galium aparine); rate 0.0320 kg/ha
  Postemergence herbicidal rating, GALAP: 8.3
GALAP (Galium aparine); rate 0.0620 kg/ha
  Postemergence herbicidal rating, GALAP: 9.0
ORYSAT (Rice, Tebonnet); rate 0.0080 kg/ha
  herbicidal rating, ORYSAT (rice tolerance): 7.0
ORYSAT (Rice, Tebonnet); rate 0.0320 kg/ha
  herbicidal rating, ORYSAT (rice tolerance): 9.0
ORYSAT (Rice, Tebonnet); rate 0.1250 kg/ha
  herbicidal rating, ORYSAT (rice tolerance): 9.0
ZEAMX (Corn, Field); Rate 0.0620 kg/ha
  ZEAMX preemergence herbicidal rating: 8.0
ZEAMX (Corn, Field); Rate 0.1250 kg/ha
  ZEAMX preemergence herbicidal rating: 9.0
ZEAMX (Corn, Field); Rate 0.2500 kg/ha
  ZEAMX preemergence herbicidal rating: 9.0
[2]; rate 0.0320 kg/ha
  Postemergence herbicidal rating, CHEAL: 9.0
[2]; rate 0.0620 kg/ha
  Postemergence herbicidal rating, CHEAL: 9.0
[3]; rate 0.0320 kg/ha
  Postemergence herbicidal rating, AMBEL: 9.0
[3]; rate 0.0620 kg/ha
  Postemergence herbicidal rating, AMBEL: 9.0
[4]; rate 0.0320 kg/ha
  Postemergence herbicidal rating, CASOB: 8.0
[4]; rate 0.0620 kg/ha
  Postemergence herbicidal rating, CASOB: 9.0
[5]; Rate 0.0620 kg/ha
  IPOHE preemergence herbicidal rating: 9.0
[5]; Rate 0.1250 kg/ha
  IPOHE preemergence herbicidal rating: 9.0
[5]; Rate 0.2500 kg/ha
  IPOHE preemergence herbicidal rating: 9.0
[6]; Rate 0.0620 kg/ha
  GLXMAW preemergence herbicidal rating: 8.0
[6]; Rate 0.1250 kg/ha
  GLXMAW preemergence herbicidal rating: 9.0
[6]; Rate 0.2500 kg/ha
  GLXMAW preemergence herbicidal rating: 9.0
[7]; rate 0.0320 kg/ha
  Postemergence herbicidal rating, ABUTH: 9.0
[7]; rate 0.0620 kg/ha
  Postemergence herbicidal rating, ABUTH: 9.0

## CC(=O)N1CCSC1c1nsc2ccc(-n3c(=O)cc(C(F)(F)F)n(C)c3=O)cc12 (stereo not shown) [Compound 29, 3-acetyl-2-[5-[3,6-dihydro-3-methyl-2,6-dioxo-4-(trifluoromethyl)-1(2H)-pyrimidinyl]-1,2-benzisothiazol-3-yl]thiazolidine]
CYPIR (Cyperus iria); rate 0.0080 kg/ha
  herbicidal rating, CYPIR: 0.0
CYPIR (Cyperus iria); rate 0.0320 kg/ha
  herbicidal rating, CYPIR: 7.0
CYPIR (Cyperus iria); rate 0.1250 kg/ha
  herbicidal rating, CYPIR: 9.0
[1]; rate 0.0080 kg/ha
  herbicidal rating, SAGPY: 0.0
[1]; rate 0.0320 kg/ha
  herbicidal rating, SAGPY: 3.5
[1]; rate 0.1250 kg/ha
  herbicidal rating, SAGPY: 9.0
GALAP (Galium aparine); rate 0.0320 kg/ha
  Postemergence herbicidal rating, GALAP: 4.0
GALAP (Galium aparine); rate 0.0620 kg/ha
  Postemergence herbicidal rating, GALAP: 6.0
ORYSAT (Rice, Tebonnet); rate 0.0080 kg/ha
  herbicidal rating, ORYSAT (rice tolerance): 0.0
ORYSAT (Rice, Tebonnet); rate 0.0320 kg/ha
  herbicidal rating, ORYSAT (rice tolerance): 3.5
ORYSAT (Rice, Tebonnet); rate 0.1250 kg/ha
  herbicidal rating, ORYSAT (rice tolerance): 7.0
ZEAMX (Corn, Field); Rate 0.0620 kg/ha
  ZEAMX preemergence herbicidal rating: 5.5
ZEAMX (Corn, Field); Rate 0.1250 kg/ha
  ZEAMX preemergence herbicidal rating: 7.0
ZEAMX (Corn, Field); Rate 0.2500 kg/ha
  ZEAMX preemergence herbicidal rating: 7.0
[2]; rate 0.0320 kg/ha
  Postemergence herbicidal rating, CHEAL: 9.0
[2]; rate 0.0620 kg/ha
  Postemergence herbicidal rating, CHEAL: 9.0
[3]; rate 0.0320 kg/ha
  Postemergence herbicidal rating, AMBEL: 9.0
[3]; rate 0.0620 kg/ha
  Postemergence herbicidal rating, AMBEL: 9.0
[4]; rate 0.0320 kg/ha
  Postemergence herbicidal rating, CASOB: 2.0
[4]; rate 0.0620 kg/ha
  Postemergence herbicidal rating, CASOB: 5.0
[5]; Rate 0.0620 kg/ha
  IPOHE preemergence herbicidal rating: 5.0
[5]; Rate 0.1250 kg/ha
  IPOHE preemergence herbicidal rating: 7.5
[5]; Rate 0.2500 kg/ha
  IPOHE preemergence herbicidal rating: 9.0
[6]; Rate 0.0620 kg/ha
  GLXMAW preemergence herbicidal rating: 6.5
[6]; Rate 0.1250 kg/ha
  GLXMAW preemergence herbicidal rating: 7.0
[6]; Rate 0.2500 kg/ha
  GLXMAW preemergence herbicidal rating: 9.0
[7]; rate 0.0320 kg/ha
  Postemergence herbicidal rating, ABUTH: 9.0
[7]; rate 0.0620 kg/ha
  Postemergence herbicidal rating, ABUTH: 9.0

## Cn1c(C(F)(F)F)cc(=O)n(-c2ccc3snc(C4SCCN4C(=O)c4ccccc4)c3c2)c1=O (stereo not shown) [Compound 30, 3-benzoyl-2-[5-[3,6-dihydro-3-methyl-2,6-dioxo-4-(trifluoromethyl)-1(2H)-pyrimidinyl]-1,2-benzisothiazol-3-yl]thiazolidine]
CYPIR (Cyperus iria); rate 0.0080 kg/ha
  herbicidal rating, CYPIR: 0.0
CYPIR (Cyperus iria); rate 0.0320 kg/ha
  herbicidal rating, CYPIR: 7.0
CYPIR (Cyperus iria); rate 0.1250 kg/ha
  herbicidal rating, CYPIR: 9.0
[1]; rate 0.0080 kg/ha
  herbicidal rating, SAGPY: 0.0
[1]; rate 0.0320 kg/ha
  herbicidal rating, SAGPY: 1.0
[1]; rate 0.1250 kg/ha
  herbicidal rating, SAGPY: 6.0
GALAP (Galium aparine); rate 0.0320 kg/ha
  Postemergence herbicidal rating, GALAP: 1.0
GALAP (Galium aparine); rate 0.0620 kg/ha
  Postemergence herbicidal rating, GALAP: 3.0
ORYSAT (Rice, Tebonnet); rate 0.0080 kg/ha
  herbicidal rating, ORYSAT (rice tolerance): 0.0
ORYSAT (Rice, Tebonnet); rate 0.0320 kg/ha
  herbicidal rating, ORYSAT (rice tolerance): 3.0
ORYSAT (Rice, Tebonnet); rate 0.1250 kg/ha
  herbicidal rating, ORYSAT (rice tolerance): 5.0
ZEAMX (Corn, Field); Rate 0.0620 kg/ha
  ZEAMX preemergence herbicidal rating: 0.5
ZEAMX (Corn, Field); Rate 0.1250 kg/ha
  ZEAMX preemergence herbicidal rating: 3.5
ZEAMX (Corn, Field); Rate 0.2500 kg/ha
  ZEAMX preemergence herbicidal rating: 5.5
[2]; rate 0.0320 kg/ha
  Postemergence herbicidal rating, CHEAL: 4.0
[2]; rate 0.0620 kg/ha
  Postemergence herbicidal rating, CHEAL: 9.0
[3]; rate 0.0320 kg/ha
  Postemergence herbicidal rating, AMBEL: 4.0
[3]; rate 0.0620 kg/ha
  Postemergence herbicidal rating, AMBEL: 9.0
[4]; rate 0.0320 kg/ha
  Postemergence herbicidal rating, CASOB: 0.0
[4]; rate 0.0620 kg/ha
  Postemergence herbicidal rating, CASOB: 2.0
[5]; Rate 0.0620 kg/ha
  IPOHE preemergence herbicidal rating: 1.5
[5]; Rate 0.1250 kg/ha
  IPOHE preemergence herbicidal rating: 1.5
[5]; Rate 0.2500 kg/ha
  IPOHE preemergence herbicidal rating: 6.5
[6]; Rate 0.0620 kg/ha
  GLXMAW preemergence herbicidal rating: 1.0
[6]; Rate 0.1250 kg/ha
  GLXMAW preemergence herbicidal rating: 0.0
[6]; Rate 0.2500 kg/ha
  GLXMAW preemergence herbicidal rating: 5.0
[7]; rate 0.0320 kg/ha
  Postemergence herbicidal rating, ABUTH: 9.0
[7]; rate 0.0620 kg/ha
  Postemergence herbicidal rating, ABUTH: 9.0

## Cn1c(C(F)(F)F)cc(=O)n(-c2ccc3snc(C4OCCS4)c3c2)c1=O (stereo not shown) [Compound 31, 1-methyl-3-[3-(1,3-oxathiolan-2-yl)-1,2-benzisothiazol-5-yl]-6-(trifluoromethyl)uracil]
CYPIR (Cyperus iria); rate 0.0080 kg/ha
  herbicidal rating, CYPIR: 0.0
CYPIR (Cyperus iria); rate 0.0320 kg/ha
  herbicidal rating, CYPIR: 9.0
CYPIR (Cyperus iria); rate 0.1250 kg/ha
  herbicidal rating, CYPIR: 9.0
[1]; rate 0.0080 kg/ha
  herbicidal rating, SAGPY: 0.0
[1]; rate 0.0320 kg/ha
  herbicidal rating, SAGPY: 9.0
[1]; rate 0.1250 kg/ha
  herbicidal rating, SAGPY: 9.0
GALAP (Galium aparine); rate 0.0320 kg/ha
  Postemergence herbicidal rating, GALAP: 6.0
GALAP (Galium aparine); rate 0.0620 kg/ha
  Postemergence herbicidal rating, GALAP: 9.0
ORYSAT (Rice, Tebonnet); rate 0.0080 kg/ha
  herbicidal rating, ORYSAT (rice tolerance): 0.0
ORYSAT (Rice, Tebonnet); rate 0.0320 kg/ha
  herbicidal rating, ORYSAT (rice tolerance): 7.5
ORYSAT (Rice, Tebonnet); rate 0.1250 kg/ha
  herbicidal rating, ORYSAT (rice tolerance): 9.0
ZEAMX (Corn, Field); Rate 0.0620 kg/ha
  ZEAMX preemergence herbicidal rating: 4.7
ZEAMX (Corn, Field); Rate 0.1250 kg/ha
  ZEAMX preemergence herbicidal rating: 6.3
ZEAMX (Corn, Field); Rate 0.2500 kg/ha
  ZEAMX preemergence herbicidal rating: 8.5
[2]; rate 0.0320 kg/ha
  Postemergence herbicidal rating, CHEAL: 9.0
[2]; rate 0.0620 kg/ha
  Postemergence herbicidal rating, CHEAL: 9.0
[3]; rate 0.0320 kg/ha
  Postemergence herbicidal rating, AMBEL: 9.0
[3]; rate 0.0620 kg/ha
  Postemergence herbicidal rating, AMBEL: 9.0
[4]; rate 0.0320 kg/ha
  Postemergence herbicidal rating, CASOB: 5.0
[4]; rate 0.0620 kg/ha
  Postemergence herbicidal rating, CASOB: 8.0
[5]; Rate 0.0620 kg/ha
  IPOHE preemergence herbicidal rating: 5.0
[5]; Rate 0.1250 kg/ha
  IPOHE preemergence herbicidal rating: 9.0
[5]; Rate 0.2500 kg/ha
  IPOHE preemergence herbicidal rating: 9.0
[6]; Rate 0.0620 kg/ha
  GLXMAW preemergence herbicidal rating: 8.5
[6]; Rate 0.1250 kg/ha
  GLXMAW preemergence herbicidal rating: 7.3
[6]; Rate 0.2500 kg/ha
  GLXMAW preemergence herbicidal rating: 9.0
[7]; rate 0.0320 kg/ha
  Postemergence herbicidal rating, ABUTH: 9.0
[7]; rate 0.0620 kg/ha
  Postemergence herbicidal rating, ABUTH: 9.0

From patent publication US6706663B2, “Herbicidal 3-heterocyclic substituted benzisothiazole and benzisoxazole compounds” (Wyeth, priority 2000, dated 2004)
